Experimental data taken from patent publication US8268848B2, “Cyclopropane compound” (Eisai R&D Management Co., Ltd., priority 2010, dated 2012).
pIC50: −log10 of the molar value. Where two headings read alike, the source gives them in different places.

Tests used:
[1] = target: T1, OX2 (Homo sapiens, UniProt O43614); test: Measurement of orexin receptor-binding ability ([125I]-OX-A, cell membranes, OX2); set-up: expressed in transfected cells; host or cells: CHO cells (membrane preparation); conditions: membranes of recombinant CHO cells expressing OX2, 0.2 nM [125I]-OX-A; for pIC50: read-out: OX2 (IC50); for IC50: OX2 (IC50) nM
T1 sequence (O43614 1-444): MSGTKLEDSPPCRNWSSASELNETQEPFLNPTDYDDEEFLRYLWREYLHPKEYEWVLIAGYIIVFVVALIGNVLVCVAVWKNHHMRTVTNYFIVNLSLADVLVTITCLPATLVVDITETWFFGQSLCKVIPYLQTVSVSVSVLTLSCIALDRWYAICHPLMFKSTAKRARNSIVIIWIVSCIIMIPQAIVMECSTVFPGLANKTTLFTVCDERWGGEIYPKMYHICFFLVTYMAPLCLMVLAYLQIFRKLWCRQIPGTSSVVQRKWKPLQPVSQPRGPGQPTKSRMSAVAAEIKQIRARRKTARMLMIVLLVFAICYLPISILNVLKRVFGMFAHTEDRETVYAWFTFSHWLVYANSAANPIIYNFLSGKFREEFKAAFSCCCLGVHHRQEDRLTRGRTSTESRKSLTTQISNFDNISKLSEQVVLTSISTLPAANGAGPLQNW
Protocol: (§1) 1. Measurement of Orexin Receptor-Binding Ability
(§2) The assay was carried out using a 96-well Wheat Germ Agglutinin Flash Plate (PerkinElmer). The volume in a single assay well was 100 ul, and the composition of the reaction solution was as follows:
(§3) 25 mM HEPES (pH 7.5), 1 mM CaCl2, 4.5 mM MgCl2, 0.5% BSA (bovine serum albumin), 0.1% sodium azide, 0.05% Tween-20, and 0.2% DMSO.
(§4) Cell membranes were prepared from recombinant CHO cells that expressed OX2 or OX1. The cell membranes were used in an amount of 5 μg protein/assay. […] Finally, the radioactivity of each well was measured using a scintillation counter (TopCount, PerkinElmer).

[2] = target: T2, OX1 (Homo sapiens, UniProt O43613); test: Measurement of orexin receptor-binding ability ([125I]-OX-A, cell membranes, OX1); set-up: expressed in transfected cells; host or cells: CHO cells (membrane preparation)
T2 sequence (O43613 1-425): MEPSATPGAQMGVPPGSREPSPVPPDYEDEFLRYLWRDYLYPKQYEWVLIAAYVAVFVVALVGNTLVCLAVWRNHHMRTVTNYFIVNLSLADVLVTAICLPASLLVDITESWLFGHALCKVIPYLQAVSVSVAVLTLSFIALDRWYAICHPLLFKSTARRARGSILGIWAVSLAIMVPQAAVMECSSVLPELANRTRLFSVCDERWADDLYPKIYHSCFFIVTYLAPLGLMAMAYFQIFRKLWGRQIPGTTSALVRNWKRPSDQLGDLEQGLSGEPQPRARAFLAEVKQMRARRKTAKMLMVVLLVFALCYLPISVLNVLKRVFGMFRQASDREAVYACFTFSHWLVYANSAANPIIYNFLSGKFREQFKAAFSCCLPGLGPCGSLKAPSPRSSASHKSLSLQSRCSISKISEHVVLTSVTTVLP
Protocol: as §1, §2, §3, §4

[3] = membranes of recombinant CHO cells expressing OX1, 0.2 nM [125I]-OX-A, read-out: OX1 (IC50)

Row | SMILES | pIC50 [1] | pIC50 [2, 3] | IC50 [1] [nM] | pIC50 [2]
1 | COCc1nc(C)ncc1OC[C@@]1(c2ccc(F)cc2)C[C@H]1C(=O)Nc1ccc(Cl)cn1 [Example 204, (1R,2S)-N-(5-chloropyridin-2-yl)-2-(4-fluorophenyl)-2-{[(4-methoxymethyl-2-methylpyrimidin-5-yl)oxy]methyl}cyclopropanecarboxamide] | 8.30 | 7.66 |  | 
2 | Cc1ccnc(NC(=O)[C@@H]2C[C@@]2(COc2cnc(C)nc2C)c2ccccc2)c1 [Example 47] | 7.54 | 6.64 |  | 
3 | Cc1ncc(OCC2(c3cc(F)ccc3F)CC2C(=O)Nc2ccc(F)cn2)c(C)n1 (stereo not shown) [Example 163, 2-(2,5-difluorophenyl)-2-{[(2,4-dimethylpyrimidin-5-yl)oxy]methyl}-N-(5-fluoropyridin-2-yl)cyclopropanecarboxamide] |  |  | 10 | > 7.70
4 | COc1cccc(C2(COc3cnc(C)nc3C)CC2C(=O)Nc2ccc(C#N)cn2)c1 (stereo not shown) [Example 183] |  |  | 42 | 6.47
5 | COc1cncc(NC(=O)[C@@H]2C[C@@]2(COc2cnc(C)nc2C)c2cccc(F)c2)c1 [Example 89] |  |  | 14 | 6.79
6 | Cc1ncc(OC[C@@]2(c3ccccc3)C[C@H]2C(=O)Nc2cccc(F)c2)c(C)n1 [Example 79] |  |  | 26 | 7.05
7 | Cc1cccc(C2(COc3cnc(C)nc3C)CC2C(=O)Nc2ccc(F)cn2)c1 (stereo not shown) [Example 176] |  |  | 26 | 6.86
8 | Cc1ncc(OC[C@@]2(c3ccccc3)C[C@H]2C(=O)Nc2ccc3c(c2)N(C)C(=O)CO3)c(C)n1 [Example 22] | 7.77 | 6.56 |  | 
9 | Cc1ncc(OCC2(c3ccccc3C)CC2C(=O)Nc2ccc(F)cn2)c(C)n1 (stereo not shown) [Example 179] |  |  | 29 | 6.78
10 | CCc1nc(C)ncc1OC[C@@]1(c2cccc(F)c2)C[C@H]1C(=O)Nc1ccc(C#N)cn1 [Example 242, (1R,2S)-N-(5-cyanopyridin-2-yl)-2-{[(4-ethyl-2-methylpyrimidin-5-yl)oxy]methyl}-2-(3-fluorophenyl)cyclopropanecarboxamide] | 8.40 | 8.22 |  | 
11 | Cc1ncc(N(C)C[C@@]2(c3cccc(F)c3)C[C@H]2C(=O)Nc2ccc(F)c(F)c2)c(C)n1 [Example 296] | 8.10 | < 6.70 |  | 
12 | Cc1ncc(OC[C@@]2(c3ccccc3)C[C@H]2C(=O)Nc2ccnc(Cl)c2)c(C)n1 [Example 33] | 7.82 | 6.68 |  | 
13 | Cc1ncc(OC[C@@]2(c3ccc(Br)cc3)C[C@H]2C(=O)Nc2ccc(Cl)cn2)c(C)n1 [Example 273, (1R,2S)-2-(4-bromophenyl)-N-(5-chloropyridin-2-yl)-2-{[(2,4-dimethylpyrimidin-5-yl)oxy]methyl}cyclopropanecarboxamide] |  |  | 10 | 7.16
14 | Cc1ncc(OCC2(c3cccc(Br)c3)CC2C(=O)Nc2ccc(F)cn2)c(C)n1 (stereo not shown) [Example 271] |  |  | 5 | 7.74
15 | COCc1nc(C)ncc1OC[C@@]1(c2ccc(F)cc2)C[C@H]1C(=O)Nc1cc(C)c(F)cn1 [Example 205, (1R,2S)-N-(5-fluoro-4-methylpyridin-2-yl)-2-(4-fluorophenyl)-2-{[(4-methoxymethyl-2-methylpyrimidin-5-yl)oxy]methyl}cyclopropanecarboxamide] |  |  | 6 | 8.05
16 | Cc1ncc(OCC2(c3ccc(Cl)cc3)CC2C(=O)Nc2ccc(C#N)cn2)c(C)n1 (stereo not shown) [Example 159] | 7.21 | 6.20 |  | 
17 | Cc1ncc(OC[C@@]2(c3ccc(Br)cc3)C[C@H]2C(=O)Nc2ccc(F)cn2)c(C)n1 [Example 274] |  |  | 19 | 7.23
18 | Cc1ncc(OCC2(c3cccc(Cl)c3)CC2C(=O)Nc2ccc(Cl)cn2)c(C)n1 (stereo not shown) [Example 155] |  |  | 6 | 8.00
19 | Cc1ncc(OCC2(c3cccc(C(F)(F)F)c3)CC2C(=O)Nc2ccc(Cl)cn2)c(C)n1 (stereo not shown) [Example 265] |  |  | 10 | 7.37
20 | Cc1ncc(OC[C@@]2(c3ccccc3)C[C@H]2C(=O)Nc2cnc(F)c(C)c2)c(C)n1 [Example 57] | 7.46 | 6.27 |  | 

Row | SMILES | pIC50 [1] | pIC50 [2, 3] | IC50 [1] [nM] | pIC50 [2]
21 | Cc1ncc(OC[C@@]2(c3ccccc3)C[C@H]2C(=O)Nc2cccc(S(C)(=O)=O)c2)c(C)n1 [Example 29] | 7.26 | 6.34 |  | 
22 | CCc1nc(C)ncc1OC[C@@]1(c2ccc(F)cc2)C[C@H]1C(=O)Nc1cc(C)c(F)cn1 [Example 248, (1R,2S)-2-{[(4-ethyl-2-methylpyrimidin-5-yl)oxy]methyl}-N-(5-fluoro-4-methylpyridin-2-yl)-2-(4-fluorophenyl)cyclopropanecarboxamide] | 8.52 | 8.00 |  | 
23 | Cc1ncc(OCC2(c3ccccc3C)CC2C(=O)Nc2ccc(C#N)cn2)c(C)n1 (stereo not shown) [Example 178] |  |  |  | 6.11
24 | COCc1nc(C)ncc1OC[C@@]1(c2ccccc2)C[C@H]1C(=O)Nc1ccc(F)cc1 [Example 149, (1R,2S)-N-(4-fluorophenyl)-2-{[(4-methoxymethyl-2-methylpyrimidin-5-yl)oxy]methyl}-2-phenylcyclopropanecarboxamide] | 8.00 |  |  | 
25 | COCc1nc(C)ncc1OCC1(c2cccc(Cl)c2)CC1C(=O)Nc1ccc(C#N)cn1 (stereo not shown) [Example 227] | 7.85 |  |  | 
26 | CCc1nc(C)ncc1OC[C@@]1(c2ccccc2)C[C@H]1C(=O)Nc1ccc(F)cc1 [Example 124] | 7.51 |  |  | 
27 | COCc1nc(C)ncc1OC[C@@]1(c2ccccc2)C[C@H]1C(=O)Nc1cc(C)c(F)cn1 [Example 145, (1R,2S)-N-(5-fluoro-4-methylpyridin-2-yl)-2-{[(4-methoxymethyl-2-methylpyrimidin-5-yl)oxy]methyl}-2-phenylcyclopropanecarboxamide] | 8.05 |  |  | 
28 | COCc1nc(C)ncc1OC[C@@]1(c2ccc(F)c(OC)c2)C[C@H]1C(=O)Nc1cc(C)c(F)cn1 [Example 239, (1R,2S)-2-(4-fluoro-3-methoxyphenyl)-N-(5-fluoro-4-methylpyridin-2-yl)-2-{[(4-methoxymethyl-2-methylpyrimidin-5-yl)oxy]methyl}cyclopropanecarboxamide] | 8.15 |  |  | 
29 | COCc1nc(C)ncc1OC[C@@]1(c2ccc(F)cc2)C[C@H]1C(=O)Nc1ccccn1 [Example 206] | 7.57 |  |  | 
30 | Cc1ncc(OC[C@@]2(c3cc(F)cc(F)c3)C[C@H]2C(=O)Nc2cc(F)ccc2F)c(C)n1 [Example 136] | 7.82 |  |  | 
31 | COc1cc([C@]2(COc3cnc(C)nc3C)C[C@H]2C(=O)Nc2ccc(Cl)cn2)ccc1F [Example 257] | 7.08 |  |  | 
32 | COc1cc([C@]2(COc3cnc(C)nc3C)C[C@H]2C(=O)Nc2ccc(F)cc2)ccc1F [Example 315] | 6.68 |  |  | 
33 | COc1cc(F)cc(C2(COc3cnc(C)nc3C)CC2C(=O)Nc2ccccn2)c1 (stereo not shown) [Example 251] | 7.52 |  |  | 
34 | CCc1nc(C)ncc1OC[C@@]1(c2ccccc2)C[C@H]1C(=O)Nc1cncc(OC)c1 [Example 123] | 7.54 |  |  | 
35 | COCc1nc(C)ncc1OC[C@@]1(c2ccccc2)C[C@H]1C(=O)Nc1ccc(F)c(F)c1 [Example 150, (1R,2S)-N-(3,4-difluorophenyl)-2-{[(4-methoxymethyl-2-methylpyrimidin-5-yl)oxy]methyl}-2-phenylcyclopropanecarboxamide] | 8.00 |  |  | 
36 | COCc1nc(C)ncc1OC[C@@]1(c2ccc(F)c(OC)c2)C[C@H]1C(=O)Nc1ccc(F)c(F)c1 [Example 238] | 7.82 |  |  | 
37 | COCc1nc(C)ncc1OC[C@@]1(c2cc(F)cc(OC)c2)C[C@H]1C(=O)Nc1ccc(F)cn1 [Example 233, (1R,2S)-2-(3-fluoro-5-methoxyphenyl)-N-(5-fluoropyridin-2-yl)-2-[(4-methoxymethyl-2-methylpyrimidin-5-yl)oxymethyl]cyclopropanecarboxamide] | 8.22 |  |  | 
38 | COCc1nc(C)ncc1OCC1(c2cccc(Cl)c2)CC1C(=O)Nc1ccc(Cl)cn1 (stereo not shown) [Example 223] | 7.47 |  |  | 
39 | COc1cccc([C@]2(COc3cnc(C)nc3C)C[C@H]2C(=O)Nc2ccccn2)c1 [Example 188] | 7.21 |  |  | 
